In publication PMC9376960, “Ruthenium(II)–Tris-pyrazolylmethane Complexes Inhibit Cancer Cell Growth by Disrupting Mitochondrial Calcium Homeostasis” (Journal of Medicinal Chemistry, 2022):

Experiments:
[1] = Octanol/water partition coefficient, shake-flask, UV-vis; format: physicochemical
Protocol: Partition coefficients (Pow); IUPAC: […] A stock solution of the selected ruthenium compound (ca. 2 mg) was prepared by first adding MeOH (50 μL, to help solubilization), followed by octanol-saturated water (2.5 mL). The solution was diluted with octanol-saturated water (ca. 1:3 v/v ratio, cRu ≈ 10^-4 M, so that 1.5 ≤ A ≤ 2.0 at λmax), and its UV-vis spectrum was recorded (Aaq^0). An aliquot of the solution (Vaq = 1.2 mL) was transferred into a test tube, and water-saturated octanol (Vorg = Vaq = 1.2 mL) was added. […] The UV-vis spectrum of the aqueous phase was recorded (Aaq^f), and the partition coefficient was calculated as Pow = ([…], where […] are the absorbances in the aqueous phase before and after partition with the organic phase, respectively.[118] For 1, an inverse procedure was followed, starting from a solution of the compound in water-saturated octanol. The partition coefficient was calculated as Pow = Aorg^f/(Aorg^0 - Aorg^f), where Aorg^0 and Aorg^f are the absorbances in the organic phase before and after partition with the aqueous phase, respectively. The wavelength of the maximum absorption of each compound (280-380 nm range) was used for UV-vis quantitation. The procedure was repeated three times for each sample (from the same stock solution); the results are given as mean ± standard deviation (Table 2).

[2] = pH of aqueous solution over time; format: physicochemical; details: 10^–3 M H2O solution
Protocol: Reactants and solvents were purchased from Alfa Aesar, Merck, Strem, or TCI Chemicals and were of the highest purity available. Tris(1-pyrazolyl)methane (tpm) was prepared according to the published procedure.[105] Reactions were conducted under a N2 atmosphere using standard Schlenk techniques, and all products were stored in air once isolated. All compounds are >95% pure by elemental analysis. Solvents were used as received unless otherwise stated. Toluene and diethyl ether were dried with the solvent purification system mBraun MB SPS5, while methanol was distilled from calcium hydride and isopropanol from magnesium. IR spectra of solid samples were recorded on an Agilent Cary630 FTIR spectrometer. IR spectra were processed with Spectragryph software.[106] NMR spectra were recorded at 298 K on a JEOL JNM-ECZ500R instrument equipped with a Royal HFX Broadband probe. Chemical shifts (expressed in parts per million) are referenced to the residual solvent peaks (^1H, ^13C)[107] or external standard (^31P to H3PO4). ^1H and ^13C{^1H} NMR spectra were assigned with the assistance of ^1H–^13C (gs-HSQC and gs-HMBC) correlation experiments.[108] Elemental analyses were performed on a Vario MICRO cube instrument (Elementar). Conductivity measurements were performed at 25 °C using an XS COND 8 instrument (cell constant = 1.0 cm^–1).[109],[110] pH measurements were performed with an Orion pH meter equipped with a Hamilton glass pH electrode. ESI-Q/ToF flow injection analysis was carried out using a 1200 Infinity HPLC (Agilent Technologies), coupled to a Jet Stream ESI interface (Agilent) with a Quadrupole-Time-of-Flight tandem mass spectrometer 6530 Infinity Q-TOF (Agilent Technologies).

**Q.** Which “log Pow” value [1] does the source give for “[RuCl(κ^3-tpm)(PPh3){NCHN(Me)(CH)2}]Cl [compound 3]” here?
**A.** –0.15 ± 0.03

**Q.** And the “pH(24h)” value ([2]; 24 h)?
**A.** 6.66

**Q.** And the “pH(48h)” value ([2]; 48 h)?
**A.** 6.36

**Q.** What about the “pH(t0)” value ([2]; t0) of the same substance?
**A.** 6.78

**Q.** For “[RuCl(κ^3-tpm)(PPh3){CNCH2P(O)(OEt2)2}]Cl [compound 9]”, which “log Pow” value [1] is on record?
**A.** –0.20 ± 0.05
